Values after ≈ are worked out from the molar mass of the structure shown. Counter-ions that a name gives are not always drawn. Like-named read-outs stand apart in the source and are kept apart here.
Assays:
[1] = tested on: WT Mtb Erdman; test: Disk zone of inhibition assay; assay type: cell-based; settings: Mycobacterium tuberculosis, 240 h, radius of zone absent of bacterial growth, 5 μl of 100 mM stock in DMSO on disk, Middlebrook 7H10 agar, 10 days at 37° C.
[2] = tested on: WT Mtb Erdman strain; test: Microplate Alamar Blue Assay (MABA); assay type: cell-based; settings: Mycobacterium tuberculosis; for MIC50: read-out: MABA MIC50; for MIC90: read-out: MABA MIC90
[3] = concentration that inhibits mycobacterial survival by 50%, Middlebrook 7H9 media, 7 days at 37° C., resazurin 24 hours
[4] = concentration that inhibits mycobacterial survival by 90%, Middlebrook 7H9 media, 7 days at 37° C., resazurin 24 hours

SMILES	zone of inhibition at 100000 µM (stock) [1]	MIC50 [2, 3]	MIC90 [2, 4]	MIC50 [2]	MIC90 [2]
CCc1nc(NCCCO)c2cc(C)sc2n1 [Example 0936, 3-({2-ethyl-6-methylthieno[2,3-d]pyrimidin-4-yl}amino)propan-1-ol]	0.75 mm	26 µM (≈ 6.54 µg/mL)	48.2 µM (≈ 12.1 µg/mL)		
CCCCNc1nc(C(F)(F)F)nc2sccc12 [Example 1545, N-Butyl-2-(trifluoromethyl)thieno[2,3-d]pyrimidin-4-amine]	1.8 mm	26.9 µM (≈ 7.41 µg/mL)	30.5 µM (≈ 8.4 µg/mL)		
CCc1nc(NCCCC(F)(F)F)c2ccsc2n1 [Example 1366, 2-Ethyl-N-(4,4,4-trifluorobutyl)thieno[2,3-d]pyrimidin-4-amine]	14 mm	0.00133 µM (≈ 0.000385 µg/mL)	0.00369 µM (≈ 0.00107 µg/mL)		
CCc1nc(NC2CCCC2)c2cc(C)sc2n1 [Example 0951, N-cyclopentyl-2-ethyl-6-methylthieno[2,3-d]pyrimidin-4-amine]	1 mm	> 50 µM	> 50 µM		
CCCCNc1nc(C)nc2c1oc1ccccc12 [Example 0927, N-butyl-4-methyl-8-oxa-3,5-diazatricyclo[7.4.0.0^2,^7]trideca-1(9),2(7),3,5,10,12-hexaen-6-amine]	10 mm	1.77 µM (≈ 0.452 µg/mL)	4.02 µM (≈ 1.03 µg/mL)		
CCc1nc(NC2CC2)c2cc(C(F)(F)F)sc2n1 [Example 1177, N-Cyclopropyl-2-ethyl-6-(trifluoromethyl)thieno[2,3-d]pyrimidin-4-amine]		30.8 µM (≈ 8.85 µg/mL)	> 50 µM		
CCCCNc1nc(CC)nc2scc(C)c12 [Example 1699, N-Butyl-2-ethyl-5-methylthieno[2,3-d]pyrimidin-4-amine]	6 mm	35.5 µM (≈ 8.85 µg/mL)	45.5 µM (≈ 11.3 µg/mL)		
CCCCNc1nc(C)nc2sc(C)c(C)c12 [Example 0796, N-butyl-2,5,6-trimethylthieno[2,3-d]pyrimidin-4-amine trifluoroacetate]				> 50 µM	> 50 µM
CCc1nc(NCCCc2ccccc2)c2c(C)csc2n1 [Example 1698, 2-Ethyl-5-methyl-N-(3-phenylpropyl)thieno[2,3-d]pyrimidin-4-amine]		0.515 µM (≈ 0.16 µg/mL)	3.67 µM (≈ 1.14 µg/mL)		
CCc1nc(NCCCc2ccccc2)c2ccsc2n1 [Example 1305, 2-Ethyl-N-(3-phenylpropyl)thieno[2,3-d]pyrimidin-4-amine]		0.113 µM (≈ 0.0336 µg/mL)	0.145 µM (≈ 0.0431 µg/mL)		
FC(F)(F)CCCNc1nc(C(F)(F)F)nc2sccc12 [Example 1548, N-(4,4,4-Trifluorobutyl)-2-(trifluoromethyl)thieno[2,3-d]pyrimidin-4-amine]		12.3 µM (≈ 4.05 µg/mL)	13.7 µM (≈ 4.51 µg/mL)		
CCc1nc(NC(C(=O)O)C(C)C)c2cc(C)sc2n1 (stereo not shown) [Example 0851, 2-({2-ethyl-6-methylthieno[2,3-d]pyrimidin-4-yl}amino)-3-methylbutanoic acid]		> 50 µM	> 50 µM		
CCCCNc1nc(CC)nc2c1oc1ccccc12 [Example 1301, N-Butyl-2-ethylbenzofuro[3,2-d]pyrimidin-4-amine]		3.8 µM (≈ 1.02 µg/mL)	8.97 µM (≈ 2.42 µg/mL)		
CCc1nc(NC2CC2)c2cc(Br)sc2n1 [Example 1146, 6-Bromo-N-cyclopropyl-2-ethyl-thieno[2,3-d]pyrimidin-4-amine]		5.98 µM (≈ 1.78 µg/mL)	13.8 µM (≈ 4.12 µg/mL)		
FC(F)(F)C(F)(F)c1nc(NC2CC2)c2ccsc2n1 [Example 1543, N-Cyclopropyl-2-(perfluoroethyl)thieno[2,3-d]pyrimidin-4-amine]		26.9 µM (≈ 8.32 µg/mL)	29.6 µM (≈ 9.15 µg/mL)		
CCc1nc(NCc2ccc(Cl)cc2)c2cc(C)sc2n1 [Example 1302, N-(4-Chlorobenzyl)-2-ethyl-6-methylthieno[2,3-d]pyrimidin-4-amine]		2.63 µM (≈ 0.836 µg/mL)	5.54 µM (≈ 1.76 µg/mL)		
Cc1cc2c(NC3CC3)nc(C(F)(F)F)nc2s1 [Example 1540, N-Cyclopropyl-6-methyl-2-(trifluoromethyl)thieno[2,3-d]pyrimidin-4-amine]		1.81 µM (≈ 0.495 µg/mL)	4.79 µM (≈ 1.31 µg/mL)		

— patent US20220117968A1, “THIENO[2,3-D)PYRIMIDINES AND BENZOFURO(3,2-D)PYRIMIDINES AS ANTIMICROBIAL AGENTS” (Saint Louis University, priority 2017, published 2022)
